Data from EP0273990B1, “Novel organic peroxides and their use in the preparation of epoxide groups containing (co)polymers” (AKZO N.V., priority 1986, dated 1988).

Details: half-life period of decomposition 10 hours; 0,1 M solution in chlorobenzene

## C=CC(C)(C)OOC(C)(C)c1ccccc1 [peroxide 3, α-(2-methyl-3-buten-2-ylperoxy)isopropylbenzene]
  Temperature (°C) for t½ of 10 hours: 106 °C
